Source: the supplement of paper PMC10307832

Experiments:
Assay in all cases: relative viability (nuclei count vs DMSO), 5 days (fraction); higher = more cells survive
[1] = tested on: 201T
Method in brief: (§1)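 Lung cancer cell lines were seeded in 1536-well plates and dosed by pin tool the next day, with either a single drug or a fixed anchor-drug dose combined with five library-drug doses (not always all listed) spaced in √10 steps. Five days later, one step fixed the cells and stained their nuclei (final 0.05% Triton X-100, 1% formaldehyde, 1 ug/ml Hoechst), and nuclei were counted on 4× images. Relative viability is the nuclei count in treated wells divided by the count in vehicle wells, and each value is the median of duplicate plates.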

[2] = tested on: BEN
Method in brief: as §1

[3] = tested on: CAL-12T
Method in brief: as §1

[4] = tested on: HCC-827
Method in brief: as §1

[5] = tested on: HOP-62
Method in brief: as §1

[6] = tested on: LCLC-103H
Method in brief: as §1

[7] = tested on: LCLC-97TM1
Method in brief: as §1

[8] = tested on: LXF-289
Method in brief: as §1

[9] = tested on: NCI-H1395
Method in brief: as §1

[10] = tested on: NCI-H1437
Method in brief: as §1

[11] = tested on: NCI-H1650
Method in brief: as §1

Structure (SMILES): CC1(C)CCC(c2ccc(Cl)cc2)=C(CN2CCN(c3ccc(C(=O)NS(=O)(=O)c4ccc(N[C@H](CCN5CCOCC5)CSc5ccccc5)c(S(=O)(=O)C(F)(F)F)c4)cc3)CC2)C1 [Navitoclax] + Cc1nc(Nc2ncc(C(=O)Nc3c(C)cccc3Cl)s2)cc(N2CCN(CCO)CC2)n1 [Dasatinib] (partner 0.075 µM)
- relative viability ([1]; first compound 0.005 µM): 0.603
- relative viability ([1]; first compound 0.01581 µM): 0.662
- relative viability ([1]; first compound 0.05 µM): 0.587
- relative viability ([1]; first compound 0.1581 µM): 0.592
- relative viability ([1]; first compound 0.5 µM): 0.714
- relative viability ([2]; first compound 0.005 µM): 0.301
- relative viability ([2]; first compound 0.01581 µM): 0.312
- relative viability ([2]; first compound 0.05 µM): 0.333
- relative viability ([2]; first compound 0.1581 µM): 0.297
- relative viability ([2]; first compound 0.5 µM): 0.0643
- relative viability ([3]; first compound 0.005 µM): 0.433
- relative viability ([3]; first compound 0.01581 µM): 0.6
- relative viability ([3]; first compound 0.05 µM): 0.325
- relative viability ([3]; first compound 0.1581 µM): 0.492
- relative viability ([3]; first compound 0.5 µM): 0.506
- relative viability ([4]; first compound 0.005 µM): 0.388
- relative viability ([4]; first compound 0.01581 µM): 0.387
- relative viability ([4]; first compound 0.05 µM): 0.297
- relative viability ([4]; first compound 0.1581 µM): 0.271
- relative viability ([4]; first compound 0.5 µM): 0.359
- relative viability ([5]; first compound 0.005 µM): 0.593
- relative viability ([5]; first compound 0.01581 µM): 0.752
- relative viability ([5]; first compound 0.05 µM): 0.623
- relative viability ([5]; first compound 0.1581 µM): 0.719
- relative viability ([5]; first compound 0.5 µM): 0.678
- relative viability ([6]; first compound 0.005 µM): 0.468
- relative viability ([6]; first compound 0.01581 µM): 0.496
- relative viability ([6]; first compound 0.05 µM): 0.31
- relative viability ([6]; first compound 0.1581 µM): 0.539
- relative viability ([6]; first compound 0.5 µM): 0.474
- relative viability ([7]; first compound 0.005 µM): 0.822
- relative viability ([7]; first compound 0.01581 µM): 0.939
- relative viability ([7]; first compound 0.05 µM): 0.648
- relative viability ([7]; first compound 0.1581 µM): 0.825
- relative viability ([7]; first compound 0.5 µM): 0.826
- relative viability ([8]; first compound 0.005 µM): 0.239
- relative viability ([8]; first compound 0.01581 µM): 0.308
- relative viability ([8]; first compound 0.05 µM): 0.193
- relative viability ([8]; first compound 0.1581 µM): 0.256
- relative viability ([8]; first compound 0.5 µM): 0.201
- relative viability ([9]; first compound 0.005 µM): 0.404
- relative viability ([9]; first compound 0.01581 µM): 0.42
- relative viability ([9]; first compound 0.05 µM): 0.378
- relative viability ([9]; first compound 0.1581 µM): 0.387
- relative viability ([9]; first compound 0.5 µM): 0.483
- relative viability ([10]; first compound 0.005 µM): 0.377
- relative viability ([10]; first compound 0.01581 µM): 0.513
- relative viability ([10]; first compound 0.05 µM): 0.287
- relative viability ([10]; first compound 0.1581 µM): 0.394
- relative viability ([10]; first compound 0.5 µM): 0.41
- relative viability ([11]; first compound 0.005 µM): 0.28
- relative viability ([11]; first compound 0.01581 µM): 0.38
